Measured values taken from patent US12018023B2 (NERVIANO MEDICAL SCIENCES S.R.L., priority 2018, dated 2024).

Columns and labels:
IDH2^R172K = target: T1, IDH2^R172K (Homo sapiens, UniProt P48735, R172K); assay: NADPH depletion assay, IDH2 R172K; assay type: biochemical
T1 construct: purchased not specified
T1 sequence (P48735 40-452 R172K): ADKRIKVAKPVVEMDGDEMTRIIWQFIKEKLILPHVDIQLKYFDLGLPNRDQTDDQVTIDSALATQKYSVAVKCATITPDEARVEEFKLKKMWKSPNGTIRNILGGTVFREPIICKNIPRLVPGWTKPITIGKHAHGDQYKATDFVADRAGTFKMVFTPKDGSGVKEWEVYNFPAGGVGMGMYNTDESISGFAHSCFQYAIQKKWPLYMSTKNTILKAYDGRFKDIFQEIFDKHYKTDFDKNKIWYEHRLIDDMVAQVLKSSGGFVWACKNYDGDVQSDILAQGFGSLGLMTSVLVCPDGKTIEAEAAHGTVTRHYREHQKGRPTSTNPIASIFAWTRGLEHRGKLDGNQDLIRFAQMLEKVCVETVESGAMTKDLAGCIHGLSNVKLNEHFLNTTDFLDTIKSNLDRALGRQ
Procedure, shortened: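 This NADPH depletion assay measures NADPH left after conversion of alpha-ketoglutarate (0.55 mM final) by 16 nM IDH2 R172K over 60 min at room temperature, after a 15 min compound preincubation in pH 7.6 Tris buffer. Substrate mix held 12 μM NADPH. Diaphorase/resazurin gave the fluorescence read-out at 544/590 nm.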

IDH1^R132C = target: T2, IDH1^R132C (Homo sapiens, UniProt O75874, R132C); assay: NADPH depletion assay, IDH1 R132C; assay type: biochemical
T2 construct: purchased not specified
Procedure, shortened: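 Fluorescence readout (Ex544/Em590) of NADPH left after diaphorase/resazurin addition. Alpha-ketoglutarate 0.14 mM final, enzyme 2 nM final; compound preincubation 15 min, then 60 min reaction, both at room temperature, pH 7.6 Tris buffer.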

U87MG_IDH1R132H = assay: Cellular 2-HG production assay, U87-MG-IDH1 R132H; assay type: cell-based; details: inhibition of 2HG production, 72 hr incubation, LC-MS/MS
Procedure: (§1) Cell lines HT-1080 (commercially available) and U87-MG-IDH1^R132H (obtained in analoy to the procedure reported in J. Mol. Neurosci 2013, 50, 165-71) are maintained in E-MEM 10% FCS and incubated at 37° C. in a humidified 5% CO2 atmosphere. Stably transfected U87-MG cell lines are also supplemented with 500 μg/mL G418.
(§2) Cells are seeded into 96 well black flat bottom plates at a density of 500 cells/well in 100 μL complete medium. After 24 hr the medium is replaced with 200 uL of fresh medium and compounds (dissolved into DMSO) are administrated to the cells using D300E Digital Dispenser (Tecan).
(§3) After 72 hr of incubation 100 uL from each well are collected and used for 2HG (R(−)-2-hydroxyglutarate) quantification.
(§4) Levels of 2-HG in cell culture media are determined by LC-MS/MS. Cell supernatants (100 μL/well) are treated with 1 M aqueous trichloroacetic acid containing 130 μM of the internal standard 2-HG-d3 (20 μL/well) in a 96-well plate.
(§5) The plates are sealed, mildly vortexed for 60 minutes, centrifuged at 4,000 RPM for 15 minutes, placed in a refrigerated autosampler taking care not to shake them, and aliquots of the upper part of the samples are directly injected in the chromatographic system. Calibration standards are obtained by ten fold dilution of aqueous 2-HG stock solutions with blank cell culture medium and denatured exactly in the same way as described above for samples. Samples and standards are assayed for 2-HG by reversed phase chromatography on a C18 column eluted with aqueous 0.15% formic acid and briefly washed with 90% methanol at the end of the run. 2-HG is determined by negative ion electrospray ionization with the internal standard method on a triple quadrupole mass spectrometer monitoring the MRM transitions 147>129 (2-HG) and 150>132 (2-HG-d3). 2-HG inhibition was calculated by comparing treated versus control data using Assay Explore (Symyx) software, with IC50 determined using a sigmoidal fitting algorithm.

[1] = target: T3, IDH1^R132H homodimer enzyme (Homo sapiens, UniProt O75874, R132H); assay: NADPH depletion assay, IDH1 R132H; assay type: biochemical
T3 construct: purchased not specified
Procedure, shortened: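 IDH1 R132H enzyme (8 nM as diluted) in Tris-HCl pH 7.6 with 10 mM MgCl2, 0.001% Triton X-100 and 4 mM β-mercaptoethanol is preincubated 15 min at RT with compound. Substrate mix (12 uM NADPH, 3.4 mM α-ketoglutarate) is added for 60 min; remaining NAD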

HT-1080 (IDH1^R132C) = assay: Cellular 2-HG production assay, HT-1080; assay type: cell-based; details: Homo sapiens, HT-1080, 72 h, inhibition of 2HG production, 72 hr incubation, LC-MS/MS; read-out: HT1080 2-HG IC50
Procedure: as §1, §2, §3, §4, §5

T3 sequence (O75874 whole entry R132H): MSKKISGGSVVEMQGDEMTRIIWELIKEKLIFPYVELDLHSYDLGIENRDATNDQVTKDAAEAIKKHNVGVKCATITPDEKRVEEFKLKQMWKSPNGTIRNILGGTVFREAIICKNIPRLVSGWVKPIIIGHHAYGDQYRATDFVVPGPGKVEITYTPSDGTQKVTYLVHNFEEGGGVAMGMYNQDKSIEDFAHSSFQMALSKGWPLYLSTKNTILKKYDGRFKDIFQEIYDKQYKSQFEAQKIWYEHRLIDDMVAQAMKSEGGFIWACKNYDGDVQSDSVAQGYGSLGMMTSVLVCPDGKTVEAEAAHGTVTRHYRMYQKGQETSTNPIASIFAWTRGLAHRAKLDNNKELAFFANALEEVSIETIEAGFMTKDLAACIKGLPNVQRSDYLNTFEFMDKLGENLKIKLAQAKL
T2 sequence (O75874 whole entry R132C): as the sequence (O75874 whole entry R132H) above, with H132C counted along it

SMILES	IC50 (IDH2^R172K) [nM]	IC50 (IDH1^R132C) [nM]	IC50 (U87MG_IDH1R132H) [nM]	IC50 [1] [nM]	IC50 (HT-1080 (IDH1^R132C)) [nM]
C[C@H](Nc1ncc2ccc(=O)n(CC(C)(C)C)c2n1)c1cc2cc(Cl)ccc2[nH]c1=O [cpd 50, 2-{[(1S)-1-(6-chloro-2-oxo-quinolin-3-yl)ethyl]amino}-8-(2,2-dimethylpropyl)pyrido[2,3-d]pyrimidin-7(8H)-one]	2510	38	2530	68	
CC[C@H](C)n1c(=O)ccc2cnc(N[C@@H](C)c3ccc(CN4CCCC(F)(F)C4)cc3)nc21 [cpd 62, 8-[(2S)-butan-2-yl]-2-{[(1S)-1-{4-[(3,3-difluoropiperidin-1-yl)methyl]phenyl}ethyl]amino}pyrido[2,3-d]pyrimidin-7(8H)-one]	5700	44	462	82	169
C[C@H](Nc1ncc2ccc(=O)n(CC3CCCCC3)c2n1)c1ccc(CN2CCC(F)(F)CC2)cc1 [cpd 113, 8-(cyclohexylmethyl)-2-{[(1S)-1-{4-[(4,4-difluoropiperidin-1-yl)methyl]phenyl}ethyl]amino}pyrido[2,3-d]pyrimidin-7(8H)-one]	5510	282	2540	367	
C[C@H](Nc1ncc2ccc(=O)n(CC3CCC3)c2n1)c1ccc(CN2CCC(F)(F)CC2)cc1 [cpd 109, 8-(cyclobutylmethyl)-2-{[(1S)-1-{4-[(4,4-difluoropiperidin-1-yl)methyl]phenyl}ethyl]amino}pyrido[2,3-d]pyrimidin-7(8H)-one]	5680	218	1810	334	
C[C@H](Nc1ncc2ccc(=O)n(CC(C)(C)C)c2n1)c1ccc(C(=O)NC2CCC(F)(F)CC2)c(F)c1 [cpd 89, N-(4,4-difluorocyclohexyl)-4-[(1S)-1-{[8-(2,2-dimethylpropyl)-7-oxo-7,8-dihydropyrido[2,3-d]pyrimidin-2-yl]amino}ethyl]-2-fluorobenzamide]		75	501	112	505
C[C@H](Nc1ncc2ccc(=O)n(CC(C)(C)C)c2n1)c1ccc(C(=O)N2CCC(F)(F)CC2)cc1 [cpd 83, 2-{[(1S)-1-{4-[(4,4-difluoropiperidin-1-yl)carbonyl]phenyl}ethyl]amino}-8-(2,2-dimethylpropyl) pyrido[2,3-d]pyrimidin-7(8H)-one]	4260	196	2060	347	
C[C@H](Nc1ncc2ccc(=O)n(CC(C)(C)C)c2n1)c1ccc(-c2cnn(C)c2)cc1 [cpd 130, 8-(2,2-dimethylpropyl)-2-({(1S)-1-[4-(1-methyl-1H-pyrazol-4-yl)phenyl]ethyl}amino)pyrido[2,3-d]pyrimidin-7 (8H)-one]	5030	93	4840	180	
C[C@H](Nc1ncc2ccc(=O)n(CC(C)(C)C)c2n1)c1ccc(CN2CCOCC2)cc1 [cpd 110, 8-(2,2-dimethylpropyl)-2-({(1S)-1-[4-(morpholin-4-ylmethyl)phenyl]ethyl}amino)pyrido[2,3-d]pyrimidin-7(8H)-one]		104	2610	238	590
CC(C)Cn1c(=O)ccc2cnc(N[C@@H](C)c3ccc(CN4CCC(F)(F)CC4)cc3)nc21 [cpd 104, 2-{[(1S)-1-{4-[(4,4-difluoropiperidin-1-yl)methyl]phenyl}ethyl]amino}-8-(2-methylpropyl)pyrido[2,3-d]pyrimidin-7(8H)-one]	5130	121	1770	276	
C[C@H](Nc1ncc2ccc(=O)n(CC(C)(C)C#N)c2n1)c1ccc2ccccc2c1 [cpd 129, 2,2-dimethyl-3-[2-{[(1S)-1-(naphthalen-2-yl)ethyl]amino}-7-oxopyrido[2,3-d]pyrimidin-8(7H)-yl]propanenitrile]	6680	98	3840	197	
C[C@H](Nc1ncc2ccc(=O)n(CC(C)(C)CO)c2n1)c1ccc2ccccc2c1 [cpd 38, 8-(3-hydroxy-2,2-dimethylpropyl)-2-{[(1S)-1-(naphthalen-2-yl)ethyl]amino}pyrido[2,3-d]pyrimidin-7(8H)-one]	7510	67	2640	137	
C[C@H](Nc1ncc2ccc(=O)n(CC(C)(C)C)c2n1)c1ccc(-c2ccccc2C#N)cc1 [cpd 134, 4′-[(1S)-1-{[8-(2,2-dimethylpropyl)-7-oxo-7,8-dihydropyrido[2,3-d]pyrimidin-2-yl]amino}ethyl]biphenyl-2-carbonitrile]	6110	61	874	152	
CC(C)[C@H](C)n1c(=O)ccc2cnc(N[C@@H](C)c3ccc(CN4CCCC(F)(F)C4)cc3)nc21 [cpd 65, 2-{[(1S)-1-{4-[(3,3-difluoropiperidin-1-yl)methyl]phenyl}ethyl]amino}-8-[(2S)-3-methylbutan-2-yl]pyrido[2,3-d]pyrimidin-7(8H)-one]		11	179	20	82
C[C@H](Nc1ncc2ccc(=O)n(Cc3c(F)cccc3F)c2n1)c1ccc(CN2CCC(F)(F)CC2)cc1 [cpd 99, 8-(2,6-difluorobenzyl)-2-{[(1S)-1-{4-[(4,4-difluoropiperidin-1-yl)methyl]phenyl}ethyl]amino}pyrido[2,3-d]pyrimidin-7(8H)-one]	3630	132	1380	201	
CC(C)[C@H](C)n1c(=O)ccc2cnc(N[C@@H](C)c3ccc(CN4CCOCC4)c(F)c3)nc21 [cpd 68, 2-({(1S)-1-[3-fluoro-4-(morpholin-4-ylmethyl)phenyl]ethyl}amino)-8-[(2S)-3-methylbutan-2-yl]pyrido[2,3-d]pyrimidin-7(8H)-one]		29	646	78	315
C[C@H](Nc1ncc2ccc(=O)n(CC(C)(C)C)c2n1)c1ccc(-c2ccnc(F)c2)cc1 [cpd 132, 8-(2,2-dimethylpropyl)-2-({(1S)-1-[4-(2-fluoropyridin-4-yl)phenyl]ethyl}amino)pyrido[2,3-d]pyrimidin-7(8H)-one]	6110	124	3220	194	
CC(C)[C@H](C)n1c(=O)ccc2cnc(N[C@@H](C)c3ccc(CN4C[C@@H](C)O[C@@H](C)C4)c(F)c3)nc21 [cpd 150, 2-{[(1S)-1-(4-{[(2R,6S)-2,6-dimethylmorpholin-4-yl]methyl}-3-fluorophenyl)ethyl]amino}-8-[(2S)-3-methylbutan-2-yl]pyrido[2,3-d]pyrimidin-7(8H)-one]		8	127	20	
C[C@H](Nc1ncc2ccc(=O)n(CC(C)(C)C)c2n1)c1ccc2ccccc2c1 [cpd 36, 8-(2,2-dimethylpropyl)-2-{[(1S)-1-(naphthalen-2-yl)ethyl]amino}pyrido[2,3-d]pyrimidin-7(8H)-one]	6540		4040	178	
